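Five compound concentrations were applied to cells in 96-well plates for 48 hours; endpoints were derived by simple linear interpolation of the resulting dose-response curve. The concentration for full growth arrest is given as TGI.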
Legend:
Experiment in all cases: DTP human tumour cell line panel, 48 h
HCT-15 colon = tested on: HCT-15 colon
EKVX NSCLC = tested on: EKVX NSCLC
SW-620 colon = tested on: SW-620 colon
K-562 leukemia = tested on: K-562 leukemia
MOLT-4 leukemia = tested on: MOLT-4 leukemia
SK-MEL-28 melanoma = tested on: SK-MEL-28 melanoma
HOP-62 NSCLC = tested on: HOP-62 NSCLC
NCI-H522 lung = tested on: NCI-H522 lung
BT-549 breast = tested on: BT-549 breast
HCC-2998 colon = tested on: HCC-2998 colon
SK-MEL-5 melanoma = tested on: SK-MEL-5 melanoma
MDA-N = tested on: MDA-N
HS 578T breast = tested on: HS 578T breast
NCI/ADR-RES ovarian = tested on: NCI/ADR-RES ovarian
M14 melanoma = tested on: M14 melanoma
OVCAR-3 ovarian = tested on: OVCAR-3 ovarian
HOP-92 NSCLC = tested on: HOP-92 NSCLC
MDA-MB-231 breast = tested on: MDA-MB-231 breast
IGROV1 ovarian = tested on: IGROV1 ovarian
ACHN renal = tested on: ACHN renal
U251 CNS = tested on: U251 CNS
TK-10 renal = tested on: TK-10 renal
SF-295 CNS = tested on: SF-295 CNS
A549 NSCLC = tested on: A549 NSCLC
MCF7 breast = tested on: MCF7 breast
A498 renal = tested on: A498 renal
NCI-H226 lung = tested on: NCI-H226 lung
SNB-19 CNS = tested on: SNB-19 CNS
RPMI-8226 leukemia = tested on: RPMI-8226 leukemia
SF-268 CNS = tested on: SF-268 CNS
HT29 colon = tested on: HT29 colon
NCI-H23 lung = tested on: NCI-H23 lung
COLO 205 colon = tested on: COLO 205 colon
SR leukemia = tested on: SR leukemia
LOX IMVI melanoma = tested on: LOX IMVI melanoma
SK-MEL-2 melanoma = tested on: SK-MEL-2 melanoma
UACC-257 melanoma = tested on: UACC-257 melanoma
CCRF-CEM leukemia = tested on: CCRF-CEM leukemia
SNB-75 CNS = tested on: SNB-75 CNS
NCI-H460 lung = tested on: NCI-H460 lung
PC-3 prostate = tested on: PC-3 prostate
T-47D breast = tested on: T-47D breast
786-0 renal = tested on: 786-0 renal
HCT-116 colon = tested on: HCT-116 colon
OVCAR-4 ovarian = tested on: OVCAR-4 ovarian
OVCAR-8 ovarian = tested on: OVCAR-8 ovarian
MALME-3M melanoma = tested on: MALME-3M melanoma
UACC-62 melanoma = tested on: UACC-62 melanoma
OVCAR-5 ovarian = tested on: OVCAR-5 ovarian
SF-539 CNS = tested on: SF-539 CNS
SK-OV-3 ovarian = tested on: SK-OV-3 ovarian
MDA-MB-435 = tested on: MDA-MB-435
CAKI-1 renal = tested on: CAKI-1 renal
RXF 393 renal = tested on: RXF 393 renal
UO-31 renal = tested on: UO-31 renal
SN12C renal = tested on: SN12C renal
KM12 colon = tested on: KM12 colon
DU-145 prostate = tested on: DU-145 prostate

Measured: TGI

COc1cc2c(cc1O)NC(=O)[C@@H]1CCCN1C2=O
> 100 µM: all assays above

Source: PubChem BioAssay (NCI)
